Measurements from patent US8192962B2, “Processes for detecting toxic substances” (Daikin Industries, Ltd., priority 2001, dated 2012).

Tested on: Detoxification protein genes
Experiment: DNA chip mRNA expression in yeast, detoxification protein genes (Table 8)
Assay type: cell-based, Saccharomyces cerevisiae S288C
Description: Yeast (Saccharomyces cerevisiae S288C (α SUC2mal mel gap2 CUP1)) were incubated at 25° C. on YPD medium (yeast extract 1%, polypepton 2%, glucose 2%). One of toxic chemical substances was added to the cells at logarithmic growth phase, and the cells were further incubated for two hours. Cells were cultured without any chemical substance in the same condition, and were used as control. Concentrations of the chemical substances were defined to inhibit the growth of the yeast but not lead to death.
After completion of the incubation, the culture was centrifuged to collect the cells. To the cells, sodium acetate buffer (50 mM sodium acetate, 10 mM EDTA, 1% SDS) was added, and the mixture was shaken at 65° C. for five minutes, followed by returning to room temperature, and obtaining the supernatant, of which the procedures were repeated two times. To the supernatant, ½ amount of a solution of phenol/chloroform was added, and the mixture was centrifuged to give a supernatant, which was added with an equal amount of chloroform, and the mixture was centrifuged to give a supernatant. To the supernatant, an equal amount of isopropanol containing 0.3 M sodium acetate was added, and the mixture was allowed to stand at room temperature for 30 minutes, after which the mixture was centrifuged to give a sediment of the whole RNAs. Seventy % ethanol was added to the sediment, and the mixture was again centrifuged to give a sediment, which was then dried and dissolved in water. mRNA was isolated from the whole RNAs as followings. In view of the fact that a poly A chain is attached to the 3′ terminus of mRNA, a polynucleotide having a poly T structure which was immobilized on the surface of latex beads was used to trap the mRNA, and then the mRNA was washed and eluted with spine column (Oligotex-dT30<Super>mRNA Purification Kit, Takara). Reverse transcription of the mRNA was conducted with a reverse transcriptase (Super Script II Reverse Transcriptase; catalogue No. 18064-014, GibcoBRL) using fluorescence-labeled nucleotides to give cDNAs that were introduced with Cy3-dUTP or Cy5-dUTP during the reverse transcription.
The labeled cDNAs were dissolved in TE buffer (10mM Tris-HCl/1 mM EDTA, pH8.0), and the solution was dropped on the DNA chip containing the whole genes of yeast (DNA Chip Research Inc. Japan) so that the cDNAs were hybridized on the DNA chip at 65° C. for over 12 hours. The fluoresces intensity of the DNA chip was read with a scanner, and the ratio relative to the fluorescence intensity resulting from the absence of chemical substance was estimated as the following, which is shown in Tables 1 to 9: […]

In the case of `CCCCCCCCCCCCOS(=O)(=O)[O-].[Na+]` [(18), sodium lauryl sulfate], the “The level of expressed mRNA in the presence of chemical substance/The level of expressed mRNA in the absence of chemical substance” value (yeast gene YBR244W) is reported as 1.2, the “The level of expressed mRNA in the presence of chemical substance/The level of expressed mRNA in the absence of chemical substance” value (yeast gene YBR293W) is reported as 0.9 and the “The level of expressed mRNA in the presence of chemical substance/The level of expressed mRNA in the absence of chemical substance” value (yeast gene YCL035C) is reported as 4.2. For the same compound, the “The level of expressed mRNA in the presence of chemical substance/The level of expressed mRNA in the absence of chemical substance” value (yeast gene YCL069W) was 1.0, the “The level of expressed mRNA in the presence of chemical substance/The level of expressed mRNA in the absence of chemical substance” value (yeast gene YCR083W) was 1.3 and the “The level of expressed mRNA in the presence of chemical substance/The level of expressed mRNA in the absence of chemical substance” value (yeast gene YDL100C) was 1.4. The “The level of expressed mRNA in the presence of chemical substance/The level of expressed mRNA in the absence of chemical substance” value (yeast gene YDL168W) was 0.8, the “The level of expressed mRNA in the presence of chemical substance/The level of expressed mRNA in the absence of chemical substance” value (yeast gene YDR256C) was 2.0 and the “The level of expressed mRNA in the presence of chemical substance/The level of expressed mRNA in the absence of chemical substance” value (yeast gene YDR453C) was 1.5. The “The level of expressed mRNA in the presence of chemical substance/The level of expressed mRNA in the absence of chemical substance” value (yeast gene YDR513W) was 3.2, the “The level of expressed mRNA in the presence of chemical substance/The level of expressed mRNA in the absence of chemical substance” value (yeast gene YDR538W) was 0.9 and the “The level of expressed mRNA in the presence of chemical substance/The level of expressed mRNA in the absence of chemical substance” value (yeast gene YEL027W) was 1.4. For the same compound, the “The level of expressed mRNA in the presence of chemical substance/The level of expressed mRNA in the absence of chemical substance” value (yeast gene YEL065W) was 0.6, the “The level of expressed mRNA in the presence of chemical substance/The level of expressed mRNA in the absence of chemical substance” value (yeast gene YER185W) was 1.1 and the “The level of expressed mRNA in the presence of chemical substance/The level of expressed mRNA in the absence of chemical substance” value (yeast gene YFL050C) was 1.0. For the same compound, the “The level of expressed mRNA in the presence of chemical substance/The level of expressed mRNA in the absence of chemical substance” value (yeast gene YGL013C) was 1.0, the “The level of expressed mRNA in the presence of chemical substance/The level of expressed mRNA in the absence of chemical substance” value (yeast gene YGL254W) was 1.2 and the “The level of expressed mRNA in the presence of chemical substance/The level of expressed mRNA in the absence of chemical substance” value (yeast gene YGR088W) was 2.0. The “The level of expressed mRNA in the presence of chemical substance/The level of expressed mRNA in the absence of chemical substance” value (yeast gene YGR138C) was 0.7, the “The level of expressed mRNA in the presence of chemical substance/The level of expressed mRNA in the absence of chemical substance” value (yeast gene YGR197C) was 1.9 and the “The level of expressed mRNA in the presence of chemical substance/The level of expressed mRNA in the absence of chemical substance” value (yeast gene YGR209C) was 2.4. For the same compound, the “The level of expressed mRNA in the presence of chemical substance/The level of expressed mRNA in the absence of chemical substance” value (yeast gene YGR224W) was 1.3, the “The level of expressed mRNA in the presence of chemical substance/The level of expressed mRNA in the absence of chemical substance” value (yeast gene YHL040C) was 1.0 and the “The level of expressed mRNA in the presence of chemical substance/The level of expressed mRNA in the absence of chemical substance” value (yeast gene YHL047C) was 1.2. The “The level of expressed mRNA in the presence of chemical substance/The level of expressed mRNA in the absence of chemical substance” value (yeast gene YHR008C) was 1.0, the “The level of expressed mRNA in the presence of chemical substance/The level of expressed mRNA in the absence of chemical substance” value (yeast gene YHR048W) was 0.9 and the “The level of expressed mRNA in the presence of chemical substance/The level of expressed mRNA in the absence of chemical substance” value (yeast gene YHR053C) was 0.5. The “The level of expressed mRNA in the presence of chemical substance/The level of expressed mRNA in the absence of chemical substance” value (yeast gene YHR055C) was 0.6, the “The level of expressed mRNA in the presence of chemical substance/The level of expressed mRNA in the absence of chemical substance” value (yeast gene YIR002C) was 1.2 and the “The level of expressed mRNA in the presence of chemical substance/The level of expressed mRNA in the absence of chemical substance” value (yeast gene YIR038C) was 2.0. The “The level of expressed mRNA in the presence of chemical substance/The level of expressed mRNA in the absence of chemical substance” value (yeast gene YJL101C) was 1.0, the “The level of expressed mRNA in the presence of chemical substance/The level of expressed mRNA in the absence of chemical substance” value (yeast gene YJR104C) was 1.1 and the “The level of expressed mRNA in the presence of chemical substance/The level of expressed mRNA in the absence of chemical substance” value (yeast gene YKL026C) was 3.3. The “The level of expressed mRNA in the presence of chemical substance/The level of expressed mRNA in the absence of chemical substance” value (yeast gene YKL064W) was 1.3, the “The level of expressed mRNA in the presence of chemical substance/The level of expressed mRNA in the absence of chemical substance” value (yeast gene YKR066C) was 1.1 and the “The level of expressed mRNA in the presence of chemical substance/The level of expressed mRNA in the absence of chemical substance” value (yeast gene YKR105C) was 1.0. For the same compound, the “The level of expressed mRNA in the presence of chemical substance/The level of expressed mRNA in the absence of chemical substance” value (yeast gene YKR106W) was 0.8, the “The level of expressed mRNA in the presence of chemical substance/The level of expressed mRNA in the absence of chemical substance” value (yeast gene YLL028W) was 1.2 and the “The level of expressed mRNA in the presence of chemical substance/The level of expressed mRNA in the absence of chemical substance” value (yeast gene YLL057C) was 1.3. The “The level of expressed mRNA in the presence of chemical substance/The level of expressed mRNA in the absence of chemical substance” value (yeast gene YLL060C) was 2.3, the “The level of expressed mRNA in the presence of chemical substance/The level of expressed mRNA in the absence of chemical substance” value (yeast gene YLR043C) was 2.2 and the “The level of expressed mRNA in the presence of chemical substance/The level of expressed mRNA in the absence of chemical substance” value (yeast gene YLR046C) was 5.4. For the same compound, the “The level of expressed mRNA in the presence of chemical substance/The level of expressed mRNA in the absence of chemical substance” value (yeast gene YML028W) was 1.5, the “The level of expressed mRNA in the presence of chemical substance/The level of expressed mRNA in the absence of chemical substance” value (yeast gene YML116W) was 1.0 and the “The level of expressed mRNA in the presence of chemical substance/The level of expressed mRNA in the absence of chemical substance” value (yeast gene YMR015C) was 1.0. The “The level of expressed mRNA in the presence of chemical substance/The level of expressed mRNA in the absence of chemical substance” value (yeast gene YMR038C) was 1.3, the “The level of expressed mRNA in the presence of chemical substance/The level of expressed mRNA in the absence of chemical substance” value (yeast gene YNL239W) was 1.4 and the “The level of expressed mRNA in the presence of chemical substance/The level of expressed mRNA in the absence of chemical substance” value (yeast gene YNL241C) was 1.0. For the same compound, the “The level of expressed mRNA in the presence of chemical substance/The level of expressed mRNA in the absence of chemical substance” value (yeast gene YNL259C) was 2.4, the “The level of expressed mRNA in the presence of chemical substance/The level of expressed mRNA in the absence of chemical substance” value (yeast gene YOL158C) was 1.7 and the “The level of expressed mRNA in the presence of chemical substance/The level of expressed mRNA in the absence of chemical substance” value (yeast gene YOR031W) was 2.4. The “The level of expressed mRNA in the presence of chemical substance/The level of expressed mRNA in the absence of chemical substance” value (yeast gene YOR153W) was 3.1, the “The level of expressed mRNA in the presence of chemical substance/The level of expressed mRNA in the absence of chemical substance” value (yeast gene YOR247W) was 0.9 and the “The level of expressed mRNA in the presence of chemical substance/The level of expressed mRNA in the absence of chemical substance” value (yeast gene YOR251C) was 1.3. The “The level of expressed mRNA in the presence of chemical substance/The level of expressed mRNA in the absence of chemical substance” value (yeast gene YOR273C) was 3.1, the “The level of expressed mRNA in the presence of chemical substance/The level of expressed mRNA in the absence of chemical substance” value (yeast gene YPL163C) was 1.4 and the “The level of expressed mRNA in the presence of chemical substance/The level of expressed mRNA in the absence of chemical substance” value (yeast gene YPR200C) was 1.0.
